According to patent US11207312B2, “Metallo-beta-lactamase inhibitors and methods of use thereof” (priority 2017, dated 2021):

What was measured:
NDM-1 = NDM-1 (Klebsiella pneumoniae, UniProt C7C422); assay: biochemical; assay type: biochemical; details: CCF2-FA fluorescence assay, 2 hours at 25° C.
In short: (§1)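 IC50s come from 4-parameter fits of inhibition versus inhibitor concentration, tested from 20 μM down to 0.00063 μM. Enzyme, CCF2-FA (1.25 μM) and inhibitor react 2 h at 25° C, pH 7, with 10 μM ZnSO4 and 0.005% Tween-20.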

IMP-1 = IMP-1 (Serratia marcescens, UniProt P52699); assay: biochemical; details: CCF2-FA fluorescence assay, 2 hours at 25° C.; read-out: IMP1 IC50
In short: as §1

VIM-1 = VIM-1 (Pseudomonas aeruginosa (strain ATCC 15692 / DSM 22644 / CIP 104116 / JCM 14847 / LMG 12228 / 1C / PRS 101 / PAO1), UniProt A0A0F7KYQ8); assay: biochemical; details: CCF2-FA fluorescence assay, 2 hours at 25° C.; read-out: VIM1 IC50
In short: as §1

VIM-2 = VIM-2 (Escherichia coli, UniProt Q5U7L7); assay: biochemical; details: CCF2-FA fluorescence assay; read-out: VIM2 IC50
[1] = test system: Escherichia coli expressing NDM-1 (CLB30016); assay type: cell-based; details: with imipenem 1 μg/ml; 95% inhibition of bacterial growth
In short: (§2)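 Each strain, diluted 1:100 from saline suspension into 1.1× CAMHB, was combined with imipenem held at 1 μg/ml and graded inhibitor. Growth after 22–24 h at 35 °C was measured by absorbance, and the lowest concentration achieving 95% inhibition defined MITC95.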

[2] = test system: Klebsiella pneumoniae expressing VIM-1 (IHMA599644); assay type: cell-based; details: with imipenem 1 μg/ml; 95% inhibition of bacterial growth
In short: as §2

[3] = test system: Serratia marcescens expressing IMP-1 (CL5741); assay type: cell-based; details: with imipenem 1 μg/ml; 95% inhibition of bacterial growth
In short: as §2

[4] = test system: P. aeruginosa MB9798 (efflux+, IMP-1 plasmid); details: for MB9798 MITC95 P. aeruginosa uM Efflux WT: efflux + (MB9798) strain, imipenem at 2 μg/mL, in the presence of a class A, C, D serine β-lactamase inhibitor closely related to relebactam; for Efflux ratio: fold difference between efflux+ (MB9798) and efflux− (MB9799) strains
In short: (§3)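 PAO1-derived isogenic pair (oprD+, inducible AmpC), efflux+ MB5919 or efflux− MB5890 parent, carrying an electroporated IMP-1 plasmid from a clinical isolate. Microbroth MIC with fixed imipenem and/or ceftazidime (usually CLSI breakpoint) plus fixed class A/C inhibitor; MBL inhibitor serially titrated, concentration restoring susceptibility recorded.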

[5] = test system: P. aeruginosa MB9799 (efflux-, IMP-1 plasmid); assay type: cell-based, Pseudomonas aeruginosa; details: efflux − (MB9799) strain; imipenem at 2 μg/mL; in the presence of a class A, C, D serine β-lactamase inhibitor closely related to relebactam
In short: as §3

NDM-1, sequence (C7C422 whole entry, looked up, species assumed): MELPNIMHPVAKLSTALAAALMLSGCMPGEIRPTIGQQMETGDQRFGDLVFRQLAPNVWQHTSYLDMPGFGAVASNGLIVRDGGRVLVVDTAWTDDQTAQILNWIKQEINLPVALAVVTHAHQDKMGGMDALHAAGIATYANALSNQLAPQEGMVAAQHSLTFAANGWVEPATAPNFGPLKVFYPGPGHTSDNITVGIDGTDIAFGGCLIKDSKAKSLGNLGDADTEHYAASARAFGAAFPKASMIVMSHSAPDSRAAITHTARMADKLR
IMP-1, sequence (P52699 whole entry, looked up, species assumed): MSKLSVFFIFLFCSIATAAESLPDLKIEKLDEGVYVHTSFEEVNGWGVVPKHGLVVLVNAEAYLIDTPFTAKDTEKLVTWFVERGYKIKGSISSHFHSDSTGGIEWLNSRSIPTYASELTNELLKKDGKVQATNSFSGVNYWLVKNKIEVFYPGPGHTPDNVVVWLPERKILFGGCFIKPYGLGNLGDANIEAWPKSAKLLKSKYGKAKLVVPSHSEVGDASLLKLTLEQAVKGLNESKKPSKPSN

| Structure (SMILES) | IC50 (NDM-1) | IC50 (IMP-1) | IC50 (VIM-1) | IC50 (VIM-2) | CLB30016 E. coli MITC95 NDM [1] | IHMA599644 K. pneumoniae MITC95 VIM [2] | CL5741 S. marcescens MITC95 IMP [3] | MB9798 MITC95 P. aeruginosa uM Efflux WT [4] | Efflux ratio [4] | MB9799 MITC95 P. aeruginosa uM Efflux Mutant [5] |
| --- | --- | --- | --- | --- | --- | --- | --- | --- | --- | --- |
| CN(C)[C@@H]1CCN(c2ccc(S(=O)(=O)N[C@@H]3CCNC3)c(S(N)(=O)=O)c2-c2nnn[nH]2)C1 [Example 68, 4-[(3R)-3-(dimethylamino)pyrrolidin-1-yl]-N1-[(3R)-pyrrolidin-3-yl]-3-(1H-tetrazol-5-yl)benzene-1,2-disulfonamide] | 22.1 nM | 16.2 nM | 2.11 nM | 17.8 nM | 0.78 µM | 1.56 µM | 1.56 µM | 12.50 µM | 8.00 | 1.56 µM |
| NS(=O)(=O)c1c(S(=O)(=O)N[C@@H]2CCNC2)ccc(N2CCCN(CCO)CC2)c1-c1nnn[nH]1 [Example 69, 4-[4-(2-hydroxyethyl)-1,4-diazepan-1-yl]-N1-[(3R)-pyrrolidin-3-yl]-3-(1H-tetrazol-5-yl)benzene-1,2-disulfonamide] | 16.2 nM | 29.6 nM | 1.6 nM | 13.3 nM | 0.78 µM | 1.56 µM | 3.13 µM | 12.50 µM | 4.00 | 3.13 µM |
| NS(=O)(=O)c1c(S(=O)(=O)N[C@@H]2CCNC2)ccc(N2CC[C@@H](CO)C2)c1-c1nnn[nH]1 [Example 70, 4-[(3R)-3-(hydroxymethyl)pyrrolidin-1-yl]-N1-[(3R)-pyrrolidin-3-yl]-3-(1H-tetrazol-5-yl)benzene-1,2-disulfonamide] | 0.45 nM | 0.51 nM | 0.57 nM | 1.25 nM | 3.91 µM | 7.81 µM | 3.91 µM | 2.34 µM | 1.20 | 1.95 µM |
| CC1(O)CCN(c2ccc(S(=O)(=O)N[C@@H]3CCNC3)c(S(N)(=O)=O)c2-c2nnn[nH]2)CC1 [Example 71, 4-(4-hydroxy-4-methylpiperidin-1-yl)-N1-[(3R)-pyrrolidin-3-yl]-3-(1H-tetrazol-5-yl)benzene-1,2-disulfonamide] | 0.26 nM | 0.7 nM | 0.53 nM | 1.69 nM | 3.13 µM | 6.25 µM | 3.13 µM | 1.56 µM | 1.00 | 1.56 µM |
| C[N+](C)(C)CCCCNc1ccc(S(=O)(=O)N[C@@H]2CCNC2)c(S(N)(=O)=O)c1-c1nnn[nH]1 [Example 72, N,N,N-trimethyl-4-({4-[(3R)-pyrrolidin-3-ylsulfamoyl]-3-sulfamoyl-2-(1H-tetrazol-5-yl)phenyl}amino)butan-1-aminium] | 3.31 nM | 9.32 nM | 2.01 nM | 6.04 nM | 1.56 µM | 6.25 µM | 3.13 µM | 25.00 µM | 8.00 | 3.13 µM |
| NC1CCN(c2ccc(S(=O)(=O)N[C@@H]3CCNC3)c(S(N)(=O)=O)c2-c2nnn[nH]2)CC1 [Example 73, 4-(4-aminopiperidin-1-yl)-N1-[(3R)-pyrrolidin-3-yl]-3-(1H-tetrazol-5-yl)benzene-1,2-disulfonamide] | 9.84 nM | 16.6 nM | 0.31 nM | 16.1 nM | 0.78 µM | 1.56 µM | 1.56 µM | 1.56 µM | 2.00 | 0.78 µM |
| CNCC1CCN(c2ccc(S(=O)(=O)N[C@@H]3CCNC3)c(S(N)(=O)=O)c2-c2nnn[nH]2)CC1 [Example 74, 4-{4-[(methylamino)methyl]piperidin-1-yl}-N1-[(3R)-pyrrolidin-3-yl]-3-(1H-tetrazol-5-yl)benzene-1,2-disulfonamide] | 3 nM | 6.8 nM | 0.45 nM | 6.86 nM | 0.78 µM | 3.13 µM | 1.56 µM | 1.56 µM | 2.00 | 0.78 µM |
| NS(=O)(=O)c1c(S(=O)(=O)N[C@@H]2CCNC2)ccc(NCCN2CCNCC2)c1-c1nnn[nH]1 [Example 75, 4-[(2-piperazin-1-ylethyl)amino]-N1-[(3R)-pyrrolidin-3-yl]-3-(1H-tetrazol-5-yl)benzene-1,2-disulfonamide] | 162 nM | 178 nM | 6.75 nM | 200 nM | 6.25 µM | 3.13 µM | 12.50 µM | 25.00 µM | 8.00 | 3.13 µM |
| NCCN1CCN(c2ccc(S(=O)(=O)N[C@@H]3CCNC3)c(S(N)(=O)=O)c2-c2nnn[nH]2)CC1 [Example 76, 4-[4-(2-aminoethyl)piperazin-1-yl]-N1-[(3R)-pyrrolidin-3-yl]-3-(1H-tetrazol-5-yl)benzene-1,2-disulfonamide] | 4.35 nM | 10.7 nM | 1.6 nM | 18.1 nM | 1.56 µM | 3.13 µM | 3.13 µM | 1.56 µM | 1.00 | 1.56 µM |
| NCC1CCN(c2ccc(S(=O)(=O)N[C@@H]3CCNC3)c(S(N)(=O)=O)c2-c2nnn[nH]2)CC1 [Example 77, 4-[4-(aminomethyl)piperidin-1-yl]-N1-[(3R)-pyrrolidin-3-yl]-3-(1H-tetrazol-5-yl)benzene-1,2-disulfonamide] | 0.53 nM | 1.83 nM | 0.11 nM | 1.8 nM | 0.78 µM | 0.78 µM | 0.78 µM | 0.78 µM | 2.00 | 0.39 µM |
| NC[C@@H]1CCCN(c2ccc(S(=O)(=O)N[C@@H]3CCNC3)c(S(N)(=O)=O)c2-c2nnn[nH]2)C1 [Example 78, 4-[(3S)-3-(aminomethyl)piperidin-1-yl]-N1-[(3R)-pyrrolidin-3-yl]-3-(1H-tetrazol-5-yl)benzene-1,2-disulfonamide] | 5.4 nM | 35.4 nM | 0.66 nM | 3.01 nM | 0.39 µM | 1.56 µM | 1.56 µM | 6.25 µM | 8.00 | 0.78 µM |
| NS(=O)(=O)c1c(S(=O)(=O)N[C@@H]2CCNC2)ccc(N2CCNCC2)c1-c1nnn[nH]1 [Example 79, 4-piperazin-1-yl-N1-[(3R)-pyrrolidin-3-yl]-3-(1H-tetrazol-5-yl)benzene-1,2-disulfonamide] | 9.35 nM | 26.6 nM | 8.6 nM | 36.4 nM | 0.39 µM | 3.13 µM | 0.78 µM | 3.13 µM | 2.00 | 1.56 µM |
| NS(=O)(=O)c1c(S(=O)(=O)N[C@@H]2CCNC2)ccc(N2CCC(S(N)(=O)=O)CC2)c1-c1nnn[nH]1 [Example 80, N1-[(3R)-pyrrolidin-3-yl]-4-(4-sulfamoylpiperidin-1-yl)-3-(1H-tetrazol-5-yl)benzene-1,2-disulfonamide] | 0.3 nM | 0.43 nM | 0.13 nM | 0.66 nM | 1.56 µM | 3.13 µM | 0.78 µM | 1.56 µM | 1.00 | 1.56 µM |
